According to patent publication US20050142068A1, “Retinal toxicity screening methods” (Pfizer Inc, priority 2003, published 2005):

Experiments:
retina = settings: literature reports; cited from earlier work
RPE-J cells = test: Assay to identify retinal toxic agents: integrin marker fluorescence in RPE-J cells, confocal microscopy; format: cell-based, rat; settings: 50 nM integrin marker, one hour
Text: For each figure, the photomicrograph on the left is made using two excitation wavelengths—488 nm (argon laser) for the integrin marker peptide and 633 nm (HeNe laser) for TOTO®-3 iodide. The integrin peptide marker fluoresces at 520 nm and TOTO®-3 iodide fluoresces at 660 nm. The photomicrograph on the right is of the identical cells as those in the left micrograph, but under 488 nm excitation alone.
RPE-J cells were plate cultured in high glucose DMEM medium (cat. no. 10313021, Invitrogen, Carlsbad, Calif.) containing 4% fetal calf serum (cat. no. 12319018, Invitrogen) at 33° C. under 5-10% CO2 atmosphere. When confluence of about 80% was reached (after about seven days), the medium was removed from the culture dish and the cells on the bottoms were washed with 0.25% trypsin-EDTA (cat. no. 25200056, Invitrogen) for three and one-half to five minutes. Following trypsinization the cells were centrifuged at 500-600 RPM for five minutes and resuspended in high glucose DMEM medium containing 4% fetal calf serum. The cells were plated in a four-chamber slide (1.7 cm^2 per chamber) at 50,000 cells per chamber. When confluence of about 80% was reached, the cells were gently wash the cells in warm phosphate buffered saline. […] Fluorescence was detected at 520 nm for the integrin marker peptide and at 660 nm for TOTO®-3 iodide.

Row | SMILES | damage to the retina reported as a result of exposure (retina) | visibility of integrin peptide marker fluorescence (RPE-J cells; 1 μM tamoxifen, 488 nm excitation (FIG. 3)) | visibility of integrin peptide marker fluorescence (RPE-J cells; 25 μM tamoxifen, 488 nm excitation (FIG. 4))
1 | CN(C)CCCN1c2ccccc2Sc2ccc(Cl)cc21 [chlorpromazine] | retinopathy |  | 
2 | CCN(CC)CCCC(C)Nc1ccnc2cc(Cl)ccc12 (stereo not shown) [cloroquine] | retinopathy |  | 
3 | CC/C(=C(\c1ccccc1)c1ccc(OCCN(C)C)cc1)c1ccccc1 [tamoxifen] |  | clearly visible | highly visible
